Where a name gives a salt, the structure may show the parent alone. Read-outs that look alike come from different tables or passages of the source.
Tested on: male C57BL/6 mice
Test: 55° C. warm-water tail-flick test (antinociception)
Type: in vivo
Details: Mus musculus
Procedure: Antinociception was assessed using the 55° C. warm-water tail-flick test. The latency to the first sign of a rapid tail flick was taken as the behavioral endpoint. Each mouse was first tested for baseline latency by immersing its tail in the water and recording the time to response. Mice not responding within 2 secs were excluded from further testing. Responsive mice were then s.c. administered the test compound and tested for antinociception at 30 min, 60 min, 90 min, and 120 min time points afterward. Antinociception was calculated using the following formula: percentage of antinociception=100×(test latency−control latency)/(20−control latency).
The following new compounds were also made and tested to determine the half maximal possible effective dose, or ED50 (mg/kg), in mice, using one of: the warm water tail-flick test as in Table II, spared nerve injury, chronic constriction injury, or Complete Freund's adjuvant induced inflammatory pain. The symbols in the last column are: + indicates ED 50>50 mg/kg; ++ indicates ED 50 is less than or equal to 30 mg/kg.

[1] = sc, 0.5 h, compounds of Table I, s.c., 30 min, 55° C. water, configuration tested as in Table II, read-out: ED50 (mg/kg) at 30 min on C57BL/6 mice in Warm-water Tail-flick Test
[2] = half maximal effective dose in mice, using one of: warm water tail-flick test, spared nerve injury, chronic constriction injury, or Complete Freund's adjuvant induced inflammatory pain (not stated which per compound), read-out: Biological Activity (ED50)

Row | Structure (SMILES) | ED50 [1] [mg/kg] | ED50 [2] [mg/kg] | other results
1 | CCOC(C)C1(CCc2cccs2)CCN(C(C)(C)c2ccc(C)nc2)C1 (single isomer, unassigned) [Compound 5] | ≤ 30 | – | –
2 | N#Cc1ccc(CC[C@@]2(C3CCO3)CCN(Cc3cccnc3)C2)cc1 (single isomer, unassigned) [Compound 11, 4-(2-((R)-3-((R or S)-oxetan-2-yl)-1-(pyridin-3-ylmethyl)pyrrolidin-3-yl)ethyl) benzonitrile] | – | ≤ 30 | –
3 | Fc1ccc(CC[C@@]2(C3CCO3)CCN(Cc3cccnc3)C2)cc1 (single isomer, unassigned) [Compound 12, 3-(((R)-3-(4-fluorophenethyl)-3-((R or S)-oxetan-2-yl)pyrrolidin-1-yl)methyl)pyridine] | – | ≤ 30 | –
4 | Cc1ccc(C(C)(C)N2CCC(CCCc3cccs3)(C3CCCO3)C2)cn1 (single isomer, unassigned) [Compound 19] | ≤ 30 | – | –
5 | N#Cc1ccc(CC[C@]2(C3CCO3)CCN(Cc3cccnc3)C2)cc1 (single isomer, unassigned) [Compound 21, 4-(2-((S)-3-((R or S)-oxetan-2-yl)-1-(pyridin-3-ylmethyl)pyrrolidin-3-yl)ethyl) benzonitrile] | – | > 50 | –
6 | CC(C)(c1ccsc1)N1CCC(CCc2cccs2)(C2CCCO2)C1 (single isomer, unassigned) [Compound 24] | – | – | ED50 (sc, 0.5 h, compounds of Table III, s.c., 30 min, 55° C. water, configuration tested as in Table IV, read-out: ED50 (mg/kg) at 30 min on C57BL/6 mice in Warm-water Tail-flick Test (same as Table II)): ≤ 30 mg/kg
7 | Cc1ccc(C(C)(C)N2CCC(CCc3cccs3)(c3nnc(C)s3)C2)cn1 (single isomer, unassigned) [Compound 24] | ≤ 30 | – | –
8 | CC(C)c1nc(C(C)(C)N2CC[C@@](CCc3ccc(S(C)(=O)=O)cc3)(C3CCCO3)C2)cs1 (single isomer, unassigned) [Compound 29, 2-isopropyl-4-(2-((R)-3-(4-(methylsulfonyl)phenethyl)-3-((R or S)-tetrahydrofuran-2-yl)pyrrolidin-1-yl)propan-2-yl)thiazole] | – | ≤ 30 | –
9 | CC(C)c1nc(C(C)(C)N2CC[C@@](CCc3ccc(C#N)cc3)(C3CCCO3)C2)cs1 (single isomer, unassigned) [Compound 30, 4-(2-((R)-1-(2-(2-isopropylthiazol-4-yl)propan-2-yl)-3-((R or S)-tetrahydrofuran-2-yl)pyrrolidin-3-yl)ethyl) benzonitrile] | – | > 50 | –
10 | CCOC(c1ccccc1)[C@]1(CCc2ccc(C#N)cc2)CCN(C(C)(C)c2ccccc2)C1 (single isomer, unassigned) [Compound 31, 4-(2-((R)-3-((R or S)-ethoxy(phenyl)methyl)-1-(2-phenylpropan-2-yl)pyrrolidin-3-yl)ethyl)benzonitrile] | – | > 50 | –
11 | CC(O)[C@]1(CCc2ccc(F)cc2)CCN(C(C)(C)c2ccc(S(C)(=O)=O)cc2)C1 (single isomer, unassigned) [Compound 38, (R or S)-1-((R)-3-(4-fluorophenethyl)-1-(2-(4-(methylsulfonyl)phenyl)propan-2-yl)pyrrolidin-3-yl)ethan-1-ol] | – | > 50 | –
12 | CC(C)(c1ccccn1)N1CC[C@](COCc2ccccc2)(C2CCCO2)C1 (single isomer, unassigned) [Compound 42] | – | > 50 | –
13 | Cc1ccc(C(C)(C)N2CCC(CCc3ccc(F)s3)(CNC(=O)NC(C)C)C2)cn1 (single isomer, unassigned) [Compound 42] | ≤ 30 | – | –
14 | Cc1ccc(C(C)(C)N2CCC(CCc3ccc(F)s3)(CNC(=O)Nc3ccccc3)C2)cn1 (single isomer, unassigned) [Compound 43] | ≤ 30 | – | –
15 | OCC1(CCc2ccc(F)cc2)CCN(Cc2cccnc2)C1 (single isomer, unassigned) [Compound 44] | ≤ 30 | – | –
16 | CCOCC1(CCc2ccc(F)cc2)CCN(Cc2cncc(F)c2)C1 (single isomer, unassigned) [Compound 45] | > 50 | – | –

Row | Structure (SMILES) | ED50 [1] [mg/kg] | ED50 [2] [mg/kg] | other results
17 | CC(C)(c1ccc(S(C)(=O)=O)cc1)N1CC[C@@](CCc2ccc(F)cc2)(C(O)C(F)(F)F)C1 (single isomer, unassigned) [Compound 50] | – | > 50 | –
18 | CCOC(C(F)(F)F)[C@]1(CCc2ccc(C#N)cc2)CCN(C(C)(C)c2ccccn2)C1 (single isomer, unassigned) [Compound 52] | – | > 50 | –
19 | CC(C)(c1ccccn1)N1CC[C@@](CCc2ccc(C#N)cc2)(C(O)c2ccccc2)C1 (single isomer, unassigned) [Compound 57] | – | ≤ 30 | –
20 | CC(O)[C@@]1(CCc2ccc(C#N)cc2)CCN(C(c2ccc(F)cc2)c2cccnc2)C1 (single isomer, unassigned) [Compound 58] | – | > 50 | –
21 | CC(C)C(O)[C@]1(CCc2ccc(C#N)cc2)CCN(C(C)(C)c2ccccn2)C1 (single isomer, unassigned) [Compound 61] | – | > 50 | –
22 | CC(C)(c1ccccn1)N1CC[C@@](CCc2ccc(S(C)(=O)=O)cc2)(C2CCCO2)C1 (single isomer, unassigned) [Compound 67] | – | > 50 | –
23 | COC[C@@]1(CCc2ccccc2)CCN(N(C)c2ccc(C)nc2)C1 (single isomer, unassigned) [Compound 69] | – | > 50 | –
24 | COc1ccc(CN2CC[C@@](CCc3ccc(C#N)cc3)(C(O)C(F)(F)F)C2)cn1 (single isomer, unassigned) [Compound 70] | – | > 50 | –
25 | CC(C)(O)[C@@]1(CCc2ccc(C#N)cc2)CCN(C(c2ccc(F)cc2)c2cccnc2)C1 (single isomer, unassigned) [Compound 71] | – | > 50 | –
26 | N#Cc1ccc(CC[C@]2(COCc3ccccc3)CCN(C(c3cccnc3)c3cccnc3)C2)cc1 (single isomer, unassigned) [Compound 72] | – | > 50 | –
27 | CC(C)(c1ccccn1)N1CC[C@](COCc2ccc(C#N)cc2)(C2CCCO2)C1 (single isomer, unassigned) [Compound 74] | – | > 50 | –
28 | Cc1ccc(C(C)(C)N2CC[C@@](CCc3ccc(F)cc3)(C(O)C(F)(F)F)C2)cn1 (single isomer, unassigned) [Compound 78] | – | ≤ 30 | –
29 | Cc1ccc(C(C)(C)N2CCC(CCc3cccs3)(COC(F)F)C2)cn1 (single isomer, unassigned) [Compound 82, (R or S)-5-(2-(3-((difluoromethoxy)methyl)-3-(2-(thiophen-2-yl)ethyl)pyrrolidin-1-yl)propan-2-yl)-2-methylpyridine citarte] | ≤ 30 | – | –
30 | CCOCC1(Cn2cnc3cnccc32)CCN(C(C)(C)c2ccc(C)nc2)C1 (single isomer, unassigned) [Compound 85, (R or S)-1-((3-(ethoxymethyl)-1-(2-(6-methylpyridin-3-yl)propan-2-yl)pyrrolidin-3-yl)methyl)-1H-imidazo[4,5-c]pyridine citrate] | ≤ 30 | – | –
31 | CCOC(c1ccccn1)C1(CCc2cccs2)CCN(C(C)(C)c2ccc(C)nc2)C1 (single isomer, unassigned) [Compound 86, 5-(2-((S or R)-3-((R& S)-ethoxy(pyridin-2-yl)methyl)-3-(2-(thiophen-2-yl)ethyl)pyrrolidin-1-yl)propan-2-yl)-2-methylpyridine citrate] | ≤ 30 | – | –
32 | Cc1ccc(C(C)(C)N2CCC(CCc3cccs3)(C3OCCc4ccccc43)C2)cn1 (single isomer, unassigned) [Compound 87, 5-(2-((R or S)-3-((S or R)-isochroman-1-yl)-3-(2-(thiophen-2-yl)ethyl)pyrrolidin-1-yl)propan-2-yl)-2-methylpyridine citrate] | ≤ 30 | – | –
